Results on 6 compounds are retold here after ChEMBL document CHEMBL4038308, “Lipophosphonoxins II: Design, Synthesis, and Properties of Novel Broad Spectrum Antibacterial Agents” (J Med Chem, 2017).

≈ marks a conversion by molar mass, not a printed value. Calls of active or inactive are those of the source. The calls are words filed in the database; no cut-off is given here. Bounds are passed on as bounds.

Assay [1] has as its system Bacillus subtilis. The experiment in a line: Antibacterial activity against Bacillus subtilis assessed as inhibition of DNA synthesis at 2 mg/L after 50 mins by [3H]thymidine incorporation assay. Format: functional.
Assay [2] deals with Bacillus subtilis. Briefly: Antibacterial activity against Bacillus subtilis assessed as inhibition of RNA synthesis at 2 mg/L after 50 mins by [3H]-uridine incorporation assay. Format: functional.
The subject of assay [3] is Bacillus subtilis. Briefly: Antibacterial activity against Bacillus subtilis assessed as inhibition of peptidoglycan synthesis at 2 mg/L after 50 mins by [3H]-N-acetylglucosamine incorporation assay. Format: functional.
For assay [4], the system named is Bacillus subtilis. Briefly: Antibacterial activity against Bacillus subtilis assessed as inhibition of plasma membrane lipids synthesis at 2 mg/L after 50 mins by [3H]-sodium acetate incorporation assay. Format: functional.
Assay [5] deals with Bacillus subtilis. Briefly: Antibacterial activity against Bacillus subtilis assessed as inhibition of protein synthesis at 2 mg/L after 50 mins by [35S]-methionine incorporation assay. Format: functional.
Assay [6] concerns Escherichia coli. The experiment in a line: Antibacterial activity against Escherichia coli CCM 3954 after 24 hrs by microdilution method. Format: functional. As to conditions: CCM 3954, 24 h.
The subject of assay [7] is Pseudomonas aeruginosa. Briefly: Antibacterial activity against Pseudomonas aeruginosa CCM 3955 after 24 hrs by microdilution method. Format: functional. The note with it: CCM 3955, 24 h. (In general: Broth dilution looks for growth in wells or tubes with falling amounts of substance.)
In a further assay the test system is Enterococcus faecalis. Briefly: Antibacterial activity against Enterococcus faecalis CCM 4224 after 24 hrs by microdilution method. Format: functional. As to conditions: CCM 4224, 24 h.
Assay [8] deals with Staphylococcus aureus. Briefly: Antibacterial activity against Staphylococcus aureus CCM 4223 after 24 hrs by microdilution method. Format: functional. As to conditions: CCM 4223, 24 h.
Assay [9] has as its system Bacillus subtilis. The experiment in a line: Antibacterial activity against Bacillus subtilis after 24 hrs by microdilution method. Format: functional.
Another assay relates to Streptococcus agalactiae. Briefly: Antibacterial activity against Streptococcus agalactiae after 24 hrs by microdilution method. Format: functional.
The subject of assay [10] is Escherichia coli. Briefly: Antibacterial activity against Escherichia coli 16702 after 24 hrs by microdilution method. The note with it: Escherichia coli, 16702, 24 h. Format: functional.
For assay [11], the system named is Pseudomonas aeruginosa. The experiment in a line: Antibacterial activity against Pseudomonas aeruginosa 16575 after 24 hrs by microdilution method. Format: functional. The note with it: Pseudomonas aeruginosa, 16575, 24 h.
Assay [12] relates to Staphylococcus aureus. The experiment in a line: Antibacterial activity against methicillin-resistant Staphylococcus aureus 4591 clinical isolates after 24 hrs by microdilution method. Format: functional. As to conditions: Staphylococcus aureus, 4591, 24 h.
The subject of assay [13] is Staphylococcus haemolyticus. Briefly: Antibacterial activity against fluoroquinolne-resistant Staphylococcus haemolyticus 16568 after 24 hrs by microdilution method. Format: functional. The note with it: Staphylococcus haemolyticus, 16568, 24 h.
The test system of assay [14] is Staphylococcus epidermidis. Briefly: Antibacterial activity against Staphylococcus epidermidis 8700/B after 24 hrs by microdilution method. Format: functional.
Another assay deals with Enterococcus faecium. The experiment in a line: Antibacterial activity against vancomycin-resistant Enterococcus faecium 419/ana clinical isolates after 24 hrs by microdilution method. Format: functional.
For the next assay, the system named is Salmonella enteritidis. Briefly: Antibacterial activity against Salmonella enteritidis S2-25 after 24 hrs by microdilution method. Format: functional, Salmonella enterica subsp. enterica serovar Enteritidis. The note with it: Salmonella enterica, S2-25, 24 h.
The next assay has as its system Acinetobacter baumannii. Briefly: Antibacterial activity against Acinetobacter baumannii A3-08 after 24 hrs by microdilution method. Format: functional. The note with it: A3-08, 24 h.
Assay [15] relates to Stenotrophomonas maltophilia. The experiment in a line: Antibacterial activity against Stenotrophomonas maltophilia S2-23 after 24 hrs by microdilution method. The note with it: S2-23, 24 h. Format: functional.
The test system of the next assay is Burkholderia multivorans. Briefly: Antibacterial activity against Burkholderia multivorans after 24 hrs by microdilution method. Format: functional.
The test system of another assay is Lipid bilayer. The experiment in a line: Binding affinity to DOPG large unilamellar vesicle assessed as carboxyfluorescein leakage at 10 mg/L after 20 secs by fluorescence-based assay relative to control.

With `CO[C@H]1/C=C/O[C@@]2(C)Oc3c(C)c(O)c4c(O)c(c(/C=N/N5CCN(C)CC5)c(O)c4c3C2=O)NC(=O)/C(C)=C\C=C\[C@H](C)[C@H](O)[C@@H](C)[C@@H](O)[C@@H](C)[C@H](OC(C)=O)[C@@H]1C`, the inhibition result in the assay with Bacillus subtilis [1], in the assay on Bacillus subtilis [2], in the assay on Bacillus subtilis [3], in the assay on Bacillus subtilis [4] and with Bacillus subtilis [5] was “Active” throughout.

With `CCCCCCCCCCCCCCOP(=O)(CCN(CCCNC(=N)N)CCCNC(=N)N)OC[C@H]1O[C@@H](n2ccc(=O)[nH]c2=O)[C@H](O)[C@@H]1O` (stereo not given in full), the MIC (in general, the lowest concentration found to suppress growth) against Escherichia coli [6] worked out at 3.13 µg/mL (≈ 4.2 µM); with Pseudomonas aeruginosa [7], 3.13 µg/mL (≈ 4.2 µM); in the assay with Enterococcus faecalis it was 12.5 µg/mL (≈ 16.8 µM); against Staphylococcus aureus [8] it was 6.25 µg/mL (≈ 8.38 µM); against Bacillus subtilis [9], 1.56 µg/mL (≈ 2.09 µM); in the assay with Streptococcus agalactiae, 3.13 µg/mL (≈ 4.2 µM). Moreover, the minimal inhibitory concentration (MIC) against Escherichia coli [10] turned out to be 3.13 µg/mL (≈ 4.2 µM); in the assay on Pseudomonas aeruginosa [11], 6.25 µg/mL (≈ 8.38 µM); against Staphylococcus aureus [12], 6.25 µg/mL (≈ 8.38 µM); in [13], 3.13 µg/mL (≈ 4.2 µM); in assay [14], 3.13 µg/mL (≈ 4.2 µM); against Enterococcus faecium, 50 µg/mL (≈ 67 µM). For the same compound, the MIC in the assay on Salmonella enteritidis stood at 3.13 µg/mL (≈ 4.2 µM); against Acinetobacter baumannii it was 12.5 µg/mL (≈ 16.8 µM); in assay [15], 12.5 µg/mL (≈ 16.8 µM); in the assay with Burkholderia multivorans it was 100 µg/mL (≈ 134 µM). For the same compound, in the assay with Lipid bilayer, the result was Active.

On to `CC1(C)S[C@@H]2[C@H](NC(=O)[C@H](N)c3ccccc3)C(=O)N2[C@H]1C(=O)O`, for which the inhibition result in the assay with Bacillus subtilis [1], in the assay on Bacillus subtilis [2], with Bacillus subtilis [3], with Bacillus subtilis [4] and in the assay with Bacillus subtilis [5] was “Active” in each case.

Consider `CCCCCCCCCCCCCCCOP(=O)(CCN(CCN)CCN)OC[C@H]1O[C@@H](n2ccc(=O)[nH]c2=O)[C@H](O)[C@@H]1O` (stereo not given in full), for which the MIC in the assay with Escherichia coli [6] stood at 1.56 µg/mL (≈ 2.41 µM); against Pseudomonas aeruginosa [7] it was 1.56 µg/mL (≈ 2.41 µM); with Enterococcus faecalis, 12.5 µg/mL (≈ 19.3 µM); against Staphylococcus aureus [8], 6.25 µg/mL (≈ 9.65 µM); in the assay on Bacillus subtilis [9], 0.78 µg/mL (≈ 1.2 µM); in the assay with Streptococcus agalactiae it was 3.13 µg/mL (≈ 4.83 µM). For the same compound, the MIC with Escherichia coli [10] is 1.56 µg/mL (≈ 2.41 µM); with Pseudomonas aeruginosa [11], 1.56 µg/mL (≈ 2.41 µM); against Staphylococcus aureus [12] it was 6.25 µg/mL (≈ 9.65 µM); in assay [13], 1.56 µg/mL (≈ 2.41 µM); in assay [14], 1.56 µg/mL (≈ 2.41 µM); with Enterococcus faecium it was 100 µg/mL (≈ 154 µM). In addition, the MIC in the assay on Salmonella enteritidis was found to be 1.56 µg/mL (≈ 2.41 µM); in the assay on Acinetobacter baumannii, 3.13 µg/mL (≈ 4.83 µM); in assay [15] it was 3.13 µg/mL (≈ 4.83 µM); against Burkholderia multivorans, 50 µg/mL (≈ 77.2 µM).

Consider `CCCCCCCCCCCCOP(=O)(CCN(CCCN)CCCN)OC[C@H]1O[C@@H](n2ccc(=O)[nH]c2=O)[C@H](O)[C@@H]1O` (stereo not given in full), for which the MIC against Escherichia coli [6] worked out at 25 µg/mL (≈ 39.4 µM); in the assay with Pseudomonas aeruginosa [7] it was 3.13 µg/mL (≈ 4.94 µM); in the assay on Enterococcus faecalis it was 100 µg/mL (≈ 158 µM); with Staphylococcus aureus [8] it was 25 µg/mL (≈ 39.4 µM); against Bacillus subtilis [9], 3.13 µg/mL (≈ 4.94 µM); against Streptococcus agalactiae it was 3.13 µg/mL (≈ 4.94 µM). Moreover, the MIC against Escherichia coli [10] was determined as 25 µg/mL (≈ 39.4 µM); against Pseudomonas aeruginosa [11] it was 50 µg/mL (≈ 78.9 µM); against Staphylococcus aureus [12], 200 µg/mL (≈ 316 µM); in assay [13] it was 200 µg/mL (≈ 316 µM); in assay [14], 6.25 µg/mL (≈ 9.86 µM); against Enterococcus faecium, 25 µg/mL (≈ 39.4 µM). Further, the MIC was 6.25 µg/mL (≈ 9.86 µM) against Salmonella enteritidis, 6.25 µg/mL (≈ 9.86 µM) against Acinetobacter baumannii, 6.25 µg/mL (≈ 9.86 µM) in [15] and above 200 µg/mL with Burkholderia multivorans.

As for `CCCCCCCCCCCCCCCCOP(=O)(CCN(CCNC(=N)N)CCNC(=N)N)OC[C@H]1O[C@@H](n2ccc(=O)[nH]c2=O)[C@H](O)[C@@H]1O` (stereo not given in full), the MIC in the assay with Escherichia coli [6] stood at 3.13 µg/mL (≈ 4.2 µM); in the assay with Pseudomonas aeruginosa [7] it was 6.25 µg/mL (≈ 8.38 µM); in the assay on Enterococcus faecalis, 25 µg/mL (≈ 33.5 µM); in the assay with Staphylococcus aureus [8] it was 6.25 µg/mL (≈ 8.38 µM); with Bacillus subtilis [9], 3.13 µg/mL (≈ 4.2 µM); against Streptococcus agalactiae it was 3.13 µg/mL (≈ 4.2 µM). The MIC was determined as 3.13 µg/mL (≈ 4.2 µM) in the assay on Escherichia coli [10]; 6.25 µg/mL (≈ 8.38 µM) in the assay on Pseudomonas aeruginosa [11]; 6.25 µg/mL (≈ 8.38 µM) in the assay on Staphylococcus aureus [12]; 6.25 µg/mL (≈ 8.38 µM) in assay [13]; 3.13 µg/mL (≈ 4.2 µM) in assay [14]; 50 µg/mL (≈ 67 µM) in the assay on Enterococcus faecium. The MIC against Salmonella enteritidis is 3.13 µg/mL (≈ 4.2 µM); in the assay with Acinetobacter baumannii, 6.25 µg/mL (≈ 8.38 µM); in [15] it was 3.13 µg/mL (≈ 4.2 µM); against Burkholderia multivorans, 25 µg/mL (≈ 33.5 µM).
